Measurements reported in patent US10004701B2, “Methods and compositions for treating infection” (UNIVERSITY OF ROCHESTER, priority 2012, dated 2018).
Structures can show the parent of a compound that is named as a salt. Where two headings read alike, the source gives them in different places.

Legend:
Assay in all cases: AK assay 384-well format, Prestwick library screening
[1] = tested on: E. faecium; format: cell-based, Enterococcus faecium; settings: Enterococcus faecium, 3 h, 50 μM final drug concentration
[2] = tested on: S. aureus strain USA300-0114; format: cell-based, Staphylococcus aureus; settings: Staphylococcus aureus, USA300, 3 h, 50 μM final drug concentration
[3] = tested on: K. pneumoniae; format: cell-based, Klebsiella pneumoniae; settings: Klebsiella pneumoniae, 3 h, 50 μM final drug concentration
[4] = tested on: A. baumannii strain 98-37-09; format: cell-based, Acinetobacter baumannii; settings: Acinetobacter baumannii, 983709, 3 h, 50 μM final drug concentration
[5] = tested on: P. aeruginosa; format: cell-based, Pseudomonas aeruginosa; settings: Pseudomonas aeruginosa, 3 h, 50 μM final drug concentration
[6] = tested on: E. cloacae; format: cell-based, Enterobacter cloacae; settings: Enterobacter cloacae, 3 h, 50 μM final drug concentration
[7] = tested on: E. coli; format: cell-based, Escherichia coli; settings: Escherichia coli, 3 h, 50 μM final drug concentration
[8] = planktonic, […], read-out: AK-based Prestwick Library Screening Results, E. faecium (fold increase in extracellular AK activity)
[9] = planktonic, […], read-out: AK-based Prestwick Library Screening Results, S. aureus (fold increase in extracellular AK activity)
[10] = planktonic, […], read-out: AK-based Prestwick Library Screening Results, K. pneumoniae (fold increase in extracellular AK activity)
[11] = planktonic, […], read-out: AK-based Prestwick Library Screening Results, A. baumannii (fold increase in extracellular AK activity)
[12] = planktonic, […], read-out: AK-based Prestwick Library Screening Results, P. aeruginosa (fold increase in extracellular AK activity)
[13] = planktonic, […], read-out: AK-based Prestwick Library Screening Results, E. cloacae (fold increase in extracellular AK activity)
[14] = planktonic, […], read-out: AK-based Prestwick Library Screening Results, E. coli (fold increase in extracellular AK activity)

## N=C(N)NCCN1CCCCCCC1 [Guanethidine sulfate]
[1]; planktonic E. faecium, 384-well, […], read-out: AK-based Prestwick Library Screening Results: E. faecium (increase in extracellular AK activity)
  fold induction at 50 µM: 1.1
[2]; planktonic S. aureus, 384-well, […], read-out: AK-based Prestwick Library Screening Results: S. aureus (increase in extracellular AK activity)
  fold induction at 50 µM: 1.1
[3]; planktonic K. pneumoniae, 384-well, […], read-out: AK-based Prestwick Library Screening Results: K. pneumoniae (increase in extracellular AK activity)
  fold induction at 50 µM: 1.1
[4]; planktonic A. baumannii, 384-well, […], read-out: AK-based Prestwick Library Screening Results: A. baumannii (increase in extracellular AK activity)
  fold induction at 50 µM: 1.3
[5]; planktonic P. aeruginosa, 384-well, […], read-out: AK-based Prestwick Library Screening Results: P. aeruginosa (increase in extracellular AK activity)
  fold induction at 50 µM: 1.4
[6]; planktonic E. cloacae, 384-well, […], read-out: AK-based Prestwick Library Screening Results: E. cloacae (increase in extracellular AK activity)
  fold induction at 50 µM: 1.4
[7]; planktonic E. coli, 384-well, […], read-out: AK-based Prestwick Library Screening Results: E. coli (increase in extracellular AK activity)
  fold induction at 50 µM: 1.4

## N=C(N)NC(=O)Cc1c(Cl)cccc1Cl [Guanfacine hydrochloride]
[1]; planktonic E. faecium, cutoff for positive-scoring molecules 3-fold increase, read-out: AK-based Prestwick Library Screening Results, E. faecium (increase in extracellular AK activity)
  fold induction at 50 µM: 1.1
[2]; planktonic S. aureus, cutoff for positive-scoring molecules 3-fold increase, read-out: AK-based Prestwick Library Screening Results, S. aureus (increase in extracellular AK activity)
  fold induction at 50 µM: 0.6
[3]; planktonic K. pneumoniae, cutoff for positive-scoring molecules 3-fold increase, read-out: AK-based Prestwick Library Screening Results, K. pneumoniae (increase in extracellular AK activity)
  fold induction at 50 µM: 0.5
[4]; planktonic A. baumannii, cutoff for positive-scoring molecules 3-fold increase, read-out: AK-based Prestwick Library Screening Results, A. baumannii (increase in extracellular AK activity)
  fold induction at 50 µM: 0.7
[5]; planktonic P. aeruginosa, cutoff for positive-scoring molecules 3-fold increase, read-out: AK-based Prestwick Library Screening Results, P. aeruginosa (increase in extracellular AK activity)
  fold induction at 50 µM: 0.7
[6]; planktonic E. cloacae, cutoff for positive-scoring molecules 3-fold increase, read-out: AK-based Prestwick Library Screening Results, E. cloacae (increase in extracellular AK activity)
  fold induction at 50 µM: 0.9
[7]; planktonic E. coli, cutoff for positive-scoring molecules 3-fold increase, read-out: AK-based Prestwick Library Screening Results, E. coli (increase in extracellular AK activity)
  fold induction at 50 µM: 0.8

## CC1(C)O[C@@H]2C[C@H]3[C@@H]4CCC5=CC(=O)CC[C@]5(C)[C@@]4(F)[C@@H](O)C[C@]3(C)[C@]2(C(=O)CCl)O1 [Halcinonide]
[1]; planktonic, cutoff for positive-scoring molecules 3-fold increase, read-out: AK-based Prestwick Library Screening Results, E. faecium (fold increase in extracellular AK activity)
  fold induction at 50 µM: 0.9
[2]; planktonic, cutoff for positive-scoring molecules 3-fold increase, read-out: AK-based Prestwick Library Screening Results, S. aureus (fold increase in extracellular AK activity)
  fold induction at 50 µM: 0.6
[3]; planktonic, cutoff for positive-scoring molecules 3-fold increase, read-out: AK-based Prestwick Library Screening Results, K. pneumoniae (fold increase in extracellular AK activity)
  fold induction at 50 µM: 0.5
[4]; planktonic, cutoff for positive-scoring molecules 3-fold increase, read-out: AK-based Prestwick Library Screening Results, A. baumannii (fold increase in extracellular AK activity)
  fold induction at 50 µM: 0.7
[5]; planktonic, cutoff for positive-scoring molecules 3-fold increase, read-out: AK-based Prestwick Library Screening Results, P. aeruginosa (fold increase in extracellular AK activity)
  fold induction at 50 µM: 0.7
[6]; planktonic, cutoff for positive-scoring molecules 3-fold increase, read-out: AK-based Prestwick Library Screening Results, E. cloacae (fold increase in extracellular AK activity)
  fold induction at 50 µM: 0.8
[7]; planktonic, cutoff for positive-scoring molecules 3-fold increase, read-out: AK-based Prestwick Library Screening Results, E. coli (fold increase in extracellular AK activity)
  fold induction at 50 µM: 0.6

## CCCCN(CCCC)CCC(O)c1cc2c(Cl)cc(Cl)cc2c2cc(C(F)(F)F)ccc12 (stereo not drawn) [Halofantrine hydrochloride]
[1]; planktonic E. faecium, positive cutoff 3-fold increase, read-out: AK-based Prestwick library screening result, E. faecium (fold increase in extracellular AK activity)
  fold induction at 50 µM: 1
[2]; planktonic S. aureus, positive cutoff 3-fold increase, read-out: AK-based Prestwick library screening result, S. aureus (fold increase in extracellular AK activity)
  fold induction at 50 µM: 1.2
[3]; planktonic K. pneumoniae, positive cutoff 3-fold increase, read-out: AK-based Prestwick library screening result, K. pneumoniae (fold increase in extracellular AK activity)
  fold induction at 50 µM: 1.1
[4]; planktonic A. baumannii, positive cutoff 3-fold increase, read-out: AK-based Prestwick library screening result, A. baumannii (fold increase in extracellular AK activity)
  fold induction at 50 µM: 1.3
[5]; planktonic P. aeruginosa, positive cutoff 3-fold increase, read-out: AK-based Prestwick library screening result, P. aeruginosa (fold increase in extracellular AK activity)
  fold induction at 50 µM: 1.1
[6]; planktonic E. cloacae, positive cutoff 3-fold increase, read-out: AK-based Prestwick library screening result, E. cloacae (fold increase in extracellular AK activity)
  fold induction at 50 µM: 1.3
[7]; planktonic E. coli, positive cutoff 3-fold increase, read-out: AK-based Prestwick library screening result, E. coli (fold increase in extracellular AK activity)
  fold induction at 50 µM: 1

## O=C(CCCN1CCC(O)(c2ccc(Cl)cc2)CC1)c1ccc(F)cc1 [Haloperidol]
[1]; 384-well format, cutoff for positive-scoring molecules 3-fold increase, read-out: AK-based Prestwick Library Screening Results, E. faecium (increase in extracellular AK activity)
  fold induction at 50 µM: 0.9
[2]; 384-well format, cutoff for positive-scoring molecules 3-fold increase, read-out: AK-based Prestwick Library Screening Results, S. aureus (increase in extracellular AK activity)
  fold induction at 50 µM: 0.8
[3]; 384-well format, cutoff for positive-scoring molecules 3-fold increase, read-out: AK-based Prestwick Library Screening Results, K. pneumoniae (increase in extracellular AK activity)
  fold induction at 50 µM: 0.6
[4]; 384-well format, cutoff for positive-scoring molecules 3-fold increase, read-out: AK-based Prestwick Library Screening Results, A. baumannii (increase in extracellular AK activity)
  fold induction at 50 µM: 1
[5]; 384-well format, cutoff for positive-scoring molecules 3-fold increase, read-out: AK-based Prestwick Library Screening Results, P. aeruginosa (increase in extracellular AK activity)
  fold induction at 50 µM: 0.9
[6]; 384-well format, cutoff for positive-scoring molecules 3-fold increase, read-out: AK-based Prestwick Library Screening Results, E. cloacae (increase in extracellular AK activity)
  fold induction at 50 µM: 1.1
[7]; 384-well format, cutoff for positive-scoring molecules 3-fold increase, read-out: AK-based Prestwick Library Screening Results, E. coli (increase in extracellular AK activity)
  fold induction at 50 µM: 0.9

## COc1ccc2c3c([nH]c2c1)C(C)=NCC3 [Harmaline hydrochloride dihydrate]
[1]; [8]
  fold induction at 50 µM: 1
[2]; [9]
  fold induction at 50 µM: 1.4
[3]; [10]
  fold induction at 50 µM: 0.9
[4]; [11]
  fold induction at 50 µM: 1
[5]; [12]
  fold induction at 50 µM: 1
[6]; [13]
  fold induction at 50 µM: 1.3
[7]; [14]
  fold induction at 50 µM: 1.1

## CC1=NCCc2c1[nH]c1cc(O)ccc21 [Harmalol hydrochloride dihydrate]
[1]; planktonic, cutoff for positive 3-fold increase, read-out: AK-based Prestwick Library Screening Results, E. faecium (fold increase in extracellular AK activity)
  fold induction at 50 µM: 1
[2]; planktonic, cutoff for positive 3-fold increase, read-out: AK-based Prestwick Library Screening Results, S. aureus (fold increase in extracellular AK activity)
  fold induction at 50 µM: 0.8
[3]; planktonic, cutoff for positive 3-fold increase, read-out: AK-based Prestwick Library Screening Results, K. pneumoniae (fold increase in extracellular AK activity)
  fold induction at 50 µM: 0.8
[4]; planktonic, cutoff for positive 3-fold increase, read-out: AK-based Prestwick Library Screening Results, A. baumannii (fold increase in extracellular AK activity)
  fold induction at 50 µM: 1.1
[5]; planktonic, cutoff for positive 3-fold increase, read-out: AK-based Prestwick Library Screening Results, P. aeruginosa (fold increase in extracellular AK activity)
  fold induction at 50 µM: 1.2
[6]; planktonic, cutoff for positive 3-fold increase, read-out: AK-based Prestwick Library Screening Results, E. cloacae (fold increase in extracellular AK activity)
  fold induction at 50 µM: 1.6
[7]; planktonic, cutoff for positive 3-fold increase, read-out: AK-based Prestwick Library Screening Results, E. coli (fold increase in extracellular AK activity)
  fold induction at 50 µM: 1.2

## COc1ccc2c(c1)[nH]c1c(C)nccc12 [Harmine hydrochloride]
[1]; [8]
  fold induction at 50 µM: 1.1
[2]; [9]
  fold induction at 50 µM: 0.9
[3]; [10]
  fold induction at 50 µM: 0.7
[4]; [11]
  fold induction at 50 µM: 1
[5]; [12]
  fold induction at 50 µM: 1.2
[6]; [13]
  fold induction at 50 µM: 1.5
[7]; [14]
  fold induction at 50 µM: 1.1

## Cc1[nH]ccc2c1[nH]c1cc(=O)ccc12 [Harmol hydrochloride monohydrate]
[1]; [8]
  fold induction at 50 µM: 1
[2]; [9]
  fold induction at 50 µM: 0.9
[3]; [10]
  fold induction at 50 µM: 0.9
[4]; [11]
  fold induction at 50 µM: 1.1
[5]; [12]
  fold induction at 50 µM: 1.1
[6]; [13]
  fold induction at 50 µM: 1.6
[7]; [14]
  fold induction at 50 µM: 1.4
